Here are results for three compounds from patent US6714815B2, “Method for the iontophoretic non-invasive determination of the in vivo concentration level of an inorganic or organic substance” (The Regents of the University of California, priority 1988, dated 2004).

Data set [1] is described as follows: In-vitro iontophoretic delivery of P.S.O.S. in the diffusion cell. In kind it is in vitro ADME. The procedure: (b) P.S.O.S. (Potassium Sucrose Octa Sulfate) P.S.O.S., 0.6 ml of 1.5 mg/ml solution in a boric buffer is placed in chamber 16A and boric acid buffer alone is placed in chamber 16C of FIGS. 1, 2 or 3. Using a direct current of 0.5 mA (0.65 mA/cm^2) transport of P.S.O.S is observed up to 5 μg/hr.

How the values of data set [2] were obtained:
Drugs—Clonidine HCl (Sigma Chemical Co., St. Louis, Mo.); Clonidine-HCl (phenyl-4-^3H) of specific activity 90 mCi/mg (Amersham, Arlington Heights, Ill.). […] The non-labelled drugs were dissolved in deionized water to form solutions of 1 mg/ml, with enough labelled drug to achieve an activity of approximately […].
Skin (13)—Full-thickness skin, freshly excised from 11-15 week old female hairless mice (strain Skh:HR-1, Simonsen Laboratory, Gilroy, Calif.).
Testing of the Modeling Cell—The diffusion cell 10 was tested in three ways:
(1) Leakage tests (without current) using dye and silicone rubber than skin; (2) leakage tests using dye and skin (without current); and (3) iontophoretic tests using the drug solutions and skin (with and without current). Procedures (1) and (2) were evaluated by visually inspecting the cell. For procedure (3), 0.6 ml of labelled drug solution was placed in chamber 16A, 0.6 ml of buffered saline was pipetted into chamber 16C, and a constant current of 0.63 mA/cm^2 (with the voltage limited at 9 V) was imposed between the electrodes in the two chambers. The activity of the solutions in chambers 16A and 16C was determined before and after iontophoresis. The activity of the skin 13 and of the samples taken from the receptor chamber was determined post-experimentally. Each experiment lasts approximately 24 hours, ±2 hours, with samples collected hourly. Receptor fluid 17 was magnetically stirred (27), and the collection flow rate was 10 ml/hr. Each procedure was, repeated three times.

The conditions of data set [3]: forearm of a person; compared with in vitro case.
How the values of data set [4] were obtained:
FIG. 5—The iontophoretic sampling was extended to another neutral bioactive molecule: ethanol.
An identical protocol to that employed for glucose experiments is followed. The only difference being in the concentration of ethanol in the dermal side. A concentration of 17 mM was used as this corresponds to a 0.08% solution, the maximum blood alcohol level legally allowed.
Radioactivity was again used to measure the extracted ethanol. The dermal side using radioactive ethanol, [1-14C]
This is another data set of the same source.

Setting [5] is: female, Skh:HR-1 hairless, mouse, 1 mg/ml.

Counter-ions that a name gives are not always drawn.

On to `O=S(=O)([O-])OC[C@H]1O[C@@](COS(=O)(=O)[O-])(O[C@H]2O[C@H](COS(=O)(=O)[O-])[C@@H](OS(=O)(=O)[O-])[C@H](OS(=O)(=O)[O-])[C@H]2OS(=O)(=O)[O-])[C@@H](OS(=O)(=O)[O-])[C@@H]1OS(=O)(=O)[O-].[K+].[K+].[K+].[K+].[K+].[K+].[K+].[K+]` [P.S.O.S, Potassium Sucrose Octa Sulfate], for which, in data set [1] (direct current of 0.5 mA (0.65 mA/cm^2), 0.6 ml of 1.5 mg/ml in boric buffer in chamber 16A), the “transport of P.S.O.S” value is given as “up to 5 μg/hr”. Moreover, the P.S.O.S transferred entry in data set [1] (same experimental configuration, printed 'with a current') was “only a few nanograms”.
In the case of `Clc1cccc(Cl)c1N=C1NCCN1` [clonidine-HCl, Clonidine HCl], the “drug in the buffered saline of chamber 16C” value in data set [2] was “no drug was found”. For the same compound, in data set [2] (setting [5]), the “mean rate of diffusion into the receptor phase (passive transport rate)” value was 0.05 μg/cm^2/hr and the “rate of penetration through the skin” value worked out at 15.0 μg/cm^2/hr. Also, in data set [2] (female, Skh:HR-1 hairless, mouse, 20 h, 1 mg/ml), the “labelled drug detected in the buffered saline of chamber 16C” value was 5 µg. The “amount of clonidine sampled” value in data set [3] is “comparable to that observed in the in vitro case”.
`CCO` [ethanol]: the “amount of ethanol extracted iontophoretically” value in data set [4] (ethanol 17 mM on the dermal side, compared with glucose) is “far greater than that obtained with glucose”. The passive flux result in data set [4] (ethanol 17 mM on the dermal side, no current) is recorded as “large passive flux”. Also, in data set [4] (preliminary experiments), the “cathodal versus anodal concentration” value is “cathodal concentration is greater than anodal” and the “metabolism during iontophoretic sampling” value is recorded as “does not seem to be metabolized”.
